Several values for one entry are separate records, joined by “and”; a condition that tells them apart may be missing. Equal values may be shown once.
Tests used:
[1] = tested on: primary human hepatocytes; experiment: Oil-spin hepatocyte uptake assay; type: in vitro ADME
Protocol: Uptake studies were conducted using the oil-spin method described previously. Cryopreserved primary human hepatocytes (Lot KCN, BioIVT, Hicksville, NY) were thawed at 37 °C and re-suspended in InVitroGro-HT medium (BioIVT, Hicksville, NY). The suspension was centrifuged at 50 × g for 5 minutes at 4 °C, and the resulting pellet was re-suspended to 2 million cells/mL in ice-cold KHB buffer with 10% human serum (BioIVT, Hicksville, NY). The cell suspension was equilibrated to 37 °C in a water bath for 10 minutes with or without inhibitors. At the start of the uptake experiment, 37 °C KHB buffer containing test compounds with or without inhibitors was added to the hepatocyte suspension. At various time points, the uptake was terminated by removing portions of the suspension to microcentrifuge tubes containing a lower […] ammonium acetate layer and an upper mineral/silicone oil layer. For the 4 °C experiment, ice-cold buffer containing test compounds with or without inhibitors was added to ice-cold hepatocyte suspension, and the mixture was incubated on ice for the duration of the experiment. The microcentrifuge tubes were immediately centrifuged at 16,000 × g for 12 seconds. The tubes were then frozen on dry ice. The frozen hepatocyte pellets were cut from the tubes and transferred to −80 °C freezer until LC-MS/MS analysis. […]

[2] = In vitro metabolism in human hepatocytes; conditions: incubations with hepatocytes and microsomes of rats and humans
Protocol: Hepatocyte cell count was ~1.1–1.8 × 10^6 cells/mL. After 3 h, samples were quenched with 3 volumes of acetonitrile, vortex mixed, and centrifuged. The supernatant (5 µL) was analyzed by LC-MS using a Kinetex EVO C18 column (1.7 μm, 2.1 × 150 mm) at 40 °C with a flow rate of 0.4 mL/min. Mobile phase A was 20 mM ammonium acetate in water, and mobile phase B was acetonitrile. The column was initially held at 5% B for 2 min, increased to 75% B over 33 minutes, and then increased to 95% B over 3 min, where it was maintained for 3 minutes before returning to 5% B over 0.5 min for re-equilibration. Mass spectrometry data was acquired using positive ion mode and data-dependent MS^2 acquisition.

HCC2302 xenograft = experiment: Mouse efficacy study, tumor volume; type: in vivo
Protocol: (§1) Female C.B-17 SCID (Inbred) mice that weighed 16–20 g were inoculated with 10 million HCC2302 lung adenocarcinoma cells (suspended in a mixture of Hank’s Balanced Salt Solution containing Matrigel at a 1:1 ratio) in the right flank subcutaneously. Tumors were monitored until they reached a mean tumor volume of 110–167 mm^3. The mean tumor volume across all three groups was 141 ± 16.64 mm^3 (mean ± SD) at the initiation of dosing (Study WF-31, n = 10). […] Tumor volumes were measured in two dimensions (length and width) using Ultra Cal-IV calipers. The tumor volume was calculated with the following formula: Tumor size (mm^3) = (longer measurement × shorter measurement^2)/2. Animal body weights were measured using an Adventura scale. Percent weight change was calculated using the following formula: Group percent weight change = (new weight − initial weight)/ initial weight) × 100%.
(§2) In a separate study, tumors were monitored until they reached a mean tumor volume of 121–159 mm^3. The mean tumor volume across all three groups was 138 ± 10.26 mm^3 (mean ± SD) at the initiation of dosing (Study WF-34, n = 10).

[3] = Body weight in mouse efficacy study; type: in vivo; conditions: in g (unit assumed)
Protocol: as §1, §2

[4] = Bioavailability after PO administration (peer review reply); type: in vivo; conditions: authors' reply in peer review file
[5] = Protein binding by equilibrium dialysis (plasma, tissue homogenates, DPBS); type: in vitro ADME, rat
Protocol: Control plasma was purchased from BioIVT, Hicksville, New York. Pooled plasma was obtained from at least three rats with K2EDTA as the anticoagulant. Control plasma was used to test the suitability of the system and for positive control analysis. Dulbecco’s phosphate-buffered saline (DPBS) (Millipore Sigma, St Louis, Missouri) was used to test the suitability of the system and as the receiver side of the dialysis device. […] The stock solution was added to the matrix (plasma or DPBS) and swirled to mix. The fortified matrix was then incubated at 37 °C for 15 min. Triplicate aliquots of the fortified matrix were analyzed by LSC.
The high throughput dialysis apparatus, model HTD96b, was used (HTDialysis LLC, Gales Ferry, Connecticut). Prior to assembly, dialysis membrane strips (molecular weight cutoff of 6–8 kDa) were hydrated, and the Teflon bars were assembled according to manufacturer’s instructions, with dialysis membrane strips laid between bars creating two compartments per well. The assembled unit was locked in place in the steel base plate. A 150 µL aliquot of each fortified matrix (tissue homogenates, plasma, or DPBS) and DPBS were added to the donor and receiver side of the HTD wells in a Teflon plate, respectively, and the plate was sealed. Samples were incubated at 37 °C and rotated at 300 rpm for 7 hours. After incubation, the seal was removed, and tissue homogenates, plasma, or DPBS and dialysate from each device insert were analyzed by LSC. All protein binding determinations were performed in triplicate.
Dialysis was performed accordingly. The radioactivity concentration of the test article in the donor and receiver samples was determined by LSC (count time 60 min) for the calculation of protein binding. […] After the designated time, aliquots of the individual donor and receiver samples were removed and analyzed by LSC. The remaining sample volume was stored at −20 °C.
Dialysis was performed accordingly.
Protein binding by equilibrium dialysis:1 PercentDrugBound=(Cm-Cd)/Cm×100 2 PercentDrugUnbound=100-PercentBound where: Cd, concentration of test article in dialysate at equilibrium; Cm, Concentration of test article in matrix at equilibrium.
Recovery from equilibrium dialysis:3 Recovery(%)=(Cm×Vm)+(Cd×Vd)/(Co×Vo)×100 where: Cm, Concentration of test article in matrix at equilibrium; Cd, Concentration of test article in dialysate at equilibrium; Co, Original concentration of test article in matrix prior to loading the dialysis device; Vm, Nominal volume of the matrix at equilibrium; Vd, Nominal volume of the dialysate at equilibrium; Vo, Nominal volume of the original matrix added to the dialysis device.

[6] = WF-31, 40 mg/kg IV QW, day 0, 3, 7, 10, 13, 14, 21

## Cc1ncsc1-c1ccc(C(C)NC(=O)C2CC(O)CN2C(=O)C(c2cc(N3CCC(CN4CCC(OC5CC(Oc6cc(N7C8CCC7CN(c7cc(-c9ccccc9O)nnc7N)C8)ccn6)C5)CC4)CC3)no2)C(C)C)cc1 (stereo not drawn) [A947]
[1]; 4 °C
  Uptake by primary human hepatocytes at 4 °C: abolished
[1]; co-administration of 1 mM rifamycin SV
  Temperature-dependent uptake with rifamycin SV: largely inhibited
[2]
  Compound metabolized: < 10%
HCC2302 xenograft; HCC2302 xenograft, weekly doses of 20 or 40 mg/kg
  Tumor growth inhibition: dose-dependent tumor growth inhibition
HCC2302 xenograft; [6]
  Tumor volume (mean): 202.88 mm^3 and 192.71 mm^3 and 203.88 mm^3 and 210.27 mm^3 and 204.46 mm^3 and 141.86 mm^3 and 179.41 mm^3
[3]; WF-31, 20 mg/kg IV QW, day 0, 3, 7, 10, 13, 14, 21
  Body weight (mean): 19.00 and 19.30 and 19.20 and 19.50
[3]; [6]
  Body weight (mean): 18.67 and 18.78 and 18.56 and 17.67 and 19.40 and 18.60
[3]; WF-34, 40 mg/kg IV QW, day 0, 4, 8, 11, 15, 18, 22, 25, 29
  Body weight (mean): 21.10 and 20.20 and 21.22 and 21.33 and 21.89 and 20.33 and 21.25 and 21.50
[4]
  Bioavailability after PO administration: did not find bioavailability

## Cc1ncsc1-c1ccc(C(C)NC(=O)C2CC(O)CN2C(=O)C(c2cc(N3CCC(CN4CCC(OC5CC(Oc6cc(N7C8CCC7CN(c7cc(-[14c]9[14cH][14cH][14cH][14cH][14c]9O)nnc7N)C8)ccn6)C5)CC4)CC3)no2)C(C)C)cc1 (stereo not drawn) [14C-A947]
[5]
  Percent Bound: 99.3%
  Percentage bound (mean), Control Plasma: 99.2%
  Percentage bound (mean), Kidney: 100%
  Percentage bound (mean), Liver: 100%
  Percentage bound (mean), Lungs: 99.5%
  Percentage bound (mean), Pancreas: 100%
  Percentage bound (mean), Plasma (4 hour): 96.8%
  Percentage bound (mean), Plasma (24 hour): 98.2%
  Percentage bound (mean), Plasma (48 hour): 97.5%
  Percentage bound (mean), Prostate Gland: 99.8%
  Percentage bound (mean), Spleen: 99.1%
  Percentage bound (mean), Thymus: 100%
[5]; rat, plasma
  Fu: 0.007
  Percentage unbound (mean), Control Plasma: 0.795%
  Percentage unbound (mean), Plasma (4 hour): 0.548%
  Percentage unbound (mean), Plasma (24 hour): 0.595%
  Percentage unbound (mean), Plasma (48 hour): 0.863%
[5]; rat, tissue homogenate
  Percentage unbound (mean), Liver: 0.0298%
  Percentage unbound (mean), Lungs: 0.09%
  Percentage unbound (mean), Pancreas: 0.0125%
  Percentage unbound (mean), Thymus: 0.0426%
